According to patent US12576052B2, “Metformin inhalation powder aerosol for treating idiopathic pulmonary fibrosis and preparation method thereof” (Wenzhou Medical University, priority 2022, dated 2026):

Legend:
IPF patients = details: after 52 weeks of treatment; cited from earlier work
α-SMA = α-SMA immunofluorescence of lung tissue in bleomycin-induced pulmonary fibrosis mice; assay type: in vivo, C57BL6 mice; details: BLM+Met vs BLM group; inhalation powder aerosol of Embodiment 2, 5 mg per mouse every day for 3 weeks; FIG. 7
Method: Among them, BLM: bleomycin-induced pulmonary fibrosis mouse model group; BLM+Met: the effect of atomization inhalation of metformin on macroscopic damage of lung in mice with pulmonary fibrosis.
Dosage of inhaled metformin: the reference value of local administration concentration of metformin in upper respiratory tract is 200 mg/kg. […]
α-SMA immunofluorescence: lung tissue slides are dried at 65° C., dewaxed with xylene and dehydrated with gradient alcohol. […] The slides are sealed and the fluorescence intensity is observed under a fluorescence microscope.
Statistical analysis: the experimental data of each group are statistically analyzed by GraphpadPrism9.0 software. All the experimental data are tested for normality, and the measurement data are expressed as mean±standard deviation. […]

[1] = NOAEL of mice and conversion into human equivalent dose (HED)
Description: (§1) According to the experimental results and the conversion rules of equivalent dose between different species (as shown in table 3), the no observable adverse effect level (NOAEL) of mice is converted into the human equivalent dose HED.
(§2) Among them, NOAEL: no observable adverse effect level dose obtained through animal preclinical toxicology research; HED: human equivalent dose.

[2] = mouse, in vivo
Description: as §1, §2

[3] = system: mice with pulmonary fibrosis; experiment: Bleomycin-induced pulmonary fibrosis mouse model: body weight, macroscopic lung damage, HE and Masson staining; assay type: in vivo, C57BL6 mice; details: inhalation powder aerosol of Embodiment 2, 5 mg per mouse every day for 3 weeks
Method: Establishment of pulmonary fibrosis model: C57BL6 mice aged 6-8 weeks are selected and adapted for one week. Bleomycin (3 mg/kg/50 μl) is given orally to mice in BLM group and BLM+Met group on the first day, and the dry powder of bleomycin is prepared to the required concentration with sterile phosphate buffer saline non-surgical method of bleomycin orally injected into mice's lungs: mice are anesthetized with isoflurane and hung on the operating board at 70°. Bleomycin is dripped orally using a 200 μl pipette).
Dosage of inhaled metformin: the reference value of local administration concentration of metformin in upper respiratory tract is 200 mg/kg. According to the weight of 25 g per mouse, each mouse inhales 5 mg of metformin inhalation powder aerosol in Embodiment 2 every day for 3 weeks.
Weighing: weights of the mice are weighed at a fixed time every morning and recorded, and the changes of mice's weight are observed at different times in each group.
Hematoxylin Eosin (HE) staining and Masson staining: the lung tissue of mice is fixed in 4% paraformaldehyde for 24 hours, washed overnight with running water, dehydrated by conventional alcohol, embedded in paraffin, cut into 5-micron slides, stained with HE and Masson, and sealed with neutral gum after applying xylene for transparency. The pathological changes of lung are observed under optical microscope and photos are taken.
Statistical analysis: the experimental data of each group are statistically analyzed by GraphpadPrism9.0 software. All the experimental data are tested for normality, and the measurement data are expressed as mean±standard deviation. The mean of multiple groups of samples is compared by One-way Analysis of Variance (one-way ANOVA). P<0.05 is statistically significant. The results are shown in FIG. 5A, FIG. 5B, FIG. 6 and FIG. 7.

SMILES: Cc1ccc(=O)n(-c2ccccc2)c1 [pirfenidone]
- disease progression of IPF patients (IPF patients): effectively slow down the disease progression

SMILES: CN(C)C(=N)N=C(N)N [Metformin, metformin]
- expression of α-SMA (immunofluorescence) (α-SMA): decreased significantly
- NOAEL at 3 weeks ([1]; C57BL6, mouse, in vivo, inhaled or intranasal, 200 mg/kg): 200 mg/kg
- HED (human equivalent dose) ([1]; NOAEL of mice/12.3): 16.3 mg/kg
- maximum recommended initial inhalation dose for the first human study [2]: 97.8 mg
- alveolar structure (Masson and HE staining) ([3]; BLM+Met group, FIG. 6): complete
- inflammatory cells in alveolar cavity and alveolar septum ([3]; BLM+Met group, FIG. 6): no obvious inflammatory cells
- body weight of mice with pulmonary fibrosis ([3]; BLM+Met vs BLM group, FIG. 5A): decreased
- macroscopic damage of lung ([3]; BLM+Met vs BLM group, FIG. 5B): pink, with smooth surface and elastic touch
- collagen fibers (Masson and HE staining) ([3]; BLM+Met vs BLM group, FIG. 6): significantly reduced
- degree of fibrosis (Masson and HE staining) ([3]; BLM+Met vs BLM group, FIG. 6): significantly improved
